Where two headings read alike, the source gives them in different places.
What was measured:
[1] = system: OVCAR-3
[2] = system: HCC-2998
[3] = system: MDA-MB-231/ATCC
[4] = system: SK-MEL-28
[5] = system: DU-145
[6] = system: HS 578T; assay: NCI 60 cell line five dose, Breast Cancer
[7] = system: MOLT-4; assay: NCI 60 cell line five dose, Leukemia
[8] = system: HCT-15
[9] = system: SR
[10] = system: OVCAR-4
[11] = system: SF-539
[12] = system: SK-OV-3; assay: NCI 60 cell line five dose, Ovarian Cancer
[13] = system: HOP-92
[14] = system: HOP-92; assay: NCI 60 cell line five dose, Non-Small Cell Lung Cancer
[15] = system: HS 578T
[16] = system: OVCAR-8
[17] = system: TK-10; assay: NCI 60 cell line five dose, Renal Cancer
[18] = system: NCI-H226
[19] = system: K-562
[20] = system: M14
[21] = system: SF-268
[22] = system: SK-OV-3
[23] = system: MDA-MB-435
[24] = system: RPMI-8226
[25] = system: SK-MEL-2
[26] = system: UACC-257; assay: NCI 60 cell line five dose, Melanoma
[27] = system: UO-31
[28] = system: HT29; assay: NCI 60 cell line five dose, Colon Cancer
[29] = system: MALME-3M
[30] = system: KM12
[31] = system: DU-145; assay: NCI 60 cell line five dose, Prostate Cancer
[32] = system: A549/ATCC
[33] = system: CCRF-CEM
[34] = system: HL-60(TB)
[35] = system: NCI/ADR-RES; assay: NCI 60 cell line five dose, Ovarian Cancer
[36] = system: UO-31; assay: NCI 60 cell line five dose, Renal Cancer
[37] = system: ACHN; assay: NCI 60 cell line five dose, Renal Cancer
[38] = system: EKVX; assay: NCI 60 cell line five dose, Non-Small Cell Lung Cancer; type: cell-based, human

With C=C1C(=O)O[C@H]2[C@H]1CC/C(COC(=O)CCC(=O)NCCCCCCCCNC(=O)CCC(=O)OC/C1=C/CC[C@@]3(C)O[C@H]3[C@H]3OC(=O)C(=C)[C@@H]3CC1)=C\CC[C@@]1(C)O[C@@H]21 [JVM 2-87, bis(((1aR,7aS,10aS,10bS,E)-1a-Methyl-8-methylene-9-oxo-1a,2,3,6,7,7a,8,9,10a,1b-decahydrooxireno[2′,3′:9,10]cyclodeca[1,2-b]furan-5-yl)methyl)4,4′-(octane-1,8-diylbis(azanediyl))bis(4-oxobutanoate)] the CC50 [1] was 5.31 µM, the CC50 [2] was 63.6 µM and the CC50 [3] was 9.88 µM. The CC50 [4] was 6.32 µM, the CC50 [5] was 6.81 µM and the GI50 ([6]; HS 578T) was 3.88 µM. It also gave a TGI ([6]; HS 578T) of 29.5 µM, a GI50 [7] of 2.11 µM and a TGI [7] of 6.41 µM. The CC50 [8] was 43.2 µM, the CC50 [9] was over 100 µM and the CC50 [10] was 9.38 µM. The CC50 [11] was 20.9 µM, the GI50 [12] was 6.45 µM and the TGI [12] was 19.7 µM. It also gave a CC50 [13] of 6.77 µM, a GI50 [14] of 1.58 µM and a TGI [14] of 3.27 µM. The CC50 [15] was over 100 µM, the CC50 [16] was over 100 µM and the GI50 [17] was 20.8 µM. It also gave a TGI [17] of 3.94 µM, a CC50 [18] of 15.7 µM and a CC50 [19] of over 100 µM. The CC50 [20] was 8.02 µM, the CC50 [21] was 42.4 µM and the CC50 [22] was 47.9 µM. For the same compound, the CC50 [23] was 7.58 µM, the CC50 [24] was over 100 µM and the CC50 [25] was 9.38 µM. It also gave a GI50 [26] of 1.76 µM, a TGI [26] of 4.48 µM and a CC50 [27] of 54 µM. It also gave a GI50 [28] of 1.64 µM, a TGI [28] of 3.12 µM and a CC50 [29] of 8 µM. The CC50 [30] was 53.4 µM, the GI50 [31] was 1.92 µM and the TGI [31] was 3.61 µM. The CC50 [32] was 89.4 µM, the CC50 [33] was over 100 µM and the GI50 [34] was 0.63 µM. It also gave a TGI [34] of 3.12 µM, a CC50 ([34]; read-out: LC50) of over 100 µM and a GI50 ([35]; NCI/ADR-RES) of 33.5 µM. It also gave a TGI ([35]; NCI/ADR-RES) of over 100 µM, a GI50 [36] of 10.9 µM and a TGI [36] of 24.2 µM. The GI50 [37] was 3.13 µM and the TGI [37] was 10.9 µM.
In the case of C=C1C(=O)O[C@H]2[C@H]1CC/C(COC(=O)NCCCCCCCCNC(=O)OC/C1=C/CC[C@@]3(C)O[C@H]3[C@H]3OC(=O)C(=C)[C@@H]3CC1)=C\CC[C@@]1(C)O[C@@H]21 [JVM 3-62, bis(((1aR,7aS, 10aS, 10bS, E)-1a-Methyl-8-methylene-9-oxo-1a,2,3,6,7,7a,8,9,10a,10b-decahydrooxireno[2′,3′:9,10]cyclodeca[1,2-b]furan-5-yl)methyl)octane-1,8-diyldicarbamate], the “Percent Growth” value ([6]; HS578T, Log10 Concentration −4.0) is reported as −26%, the “Percent Growth” value ([6]; HS578T, Log10 Concentration −5.0) is reported as −5% and the “Percent Growth” value ([6]; HS578T, Log10 Concentration −6.0) is reported as 54%. For the same compound, the “Percent Growth” value ([6]; HS578T, Log10 Concentration −7.0) was 90%, the “Percent Growth” value ([6]; HS578T, Log10 Concentration −8.0) was 94% and the GI50 ([6]; HS578T, molar) was 1.17 µM. For the same compound, the TGI ([6]; HS578T, molar) was 8.25E−6, the CC50 ([6]; read-out: LC50, HS578T, molar) was over 100 µM and the “Percent Growth” value ([7]; Log10 Concentration −4.0) was −34%. The “Percent Growth” value ([7]; Log10 Concentration −5.0) was −27%, the “Percent Growth” value ([7]; Log10 Concentration −6.0) was 2% and the “Percent Growth” value ([7]; Log10 Concentration −7.0) was 101%. The “Percent Growth” value ([7]; Log10 Concentration −8.0) was 100%, the GI50 ([7]; molar) was 0.33 µM and the TGI ([7]; molar) was 1.18E−6. The CC50 ([7]; read-out: LC50, molar) was over 100 µM, the “Percent Growth” value ([38]; Log10 Concentration −4.0) was −98% and the “Percent Growth” value ([38]; Log10 Concentration −5.0) was −99%. For the same compound, the “Percent Growth” value ([38]; Log10 Concentration −6.0) was 62%, the “Percent Growth” value ([38]; Log10 Concentration −7.0) was 90% and the “Percent Growth” value ([38]; Log10 Concentration −8.0) was 91%. The GI50 ([38]; molar) was 1.19 µM, the TGI ([38]; molar) was 2.44E−6 and the CC50 ([38]; molar, read-out: LC50 (the source's name)) was 4.99 µM. The “Percent Growth” value ([12]; Log10 Concentration −4.0) was −100%, the “Percent Growth” value ([12]; Log10 Concentration −5.0) was 10% and the “Percent Growth” value ([12]; Log10 Concentration −6.0) was 101%. The “Percent Growth” value ([12]; Log10 Concentration −7.0) was 108%, the “Percent Growth” value ([12]; Log10 Concentration −8.0) was 108% and the GI50 ([12]; molar) was 3.64 µM. The “Percent Growth” value ([14]; Log10 Concentration −4.0) was −88%, the “Percent Growth” value ([14]; Log10 Concentration −5.0) was −92% and the “Percent Growth” value ([14]; Log10 Concentration −6.0) was −26%. For the same compound, the “Percent Growth” value ([14]; Log10 Concentration −7.0) was 75%, the “Percent Growth” value ([14]; Log10 Concentration −8.0) was 87% and the GI50 ([14]; molar) was 0.177 µM. For the same compound, the TGI ([14]; molar) was 5.51E−7, the CC50 ([14]; read-out: LC50, molar) was 2.29 µM and the “Percent Growth” value ([17]; Log10 Concentration −4.0) was −99%. The “Percent Growth” value ([17]; Log10 Concentration −5.0) was −98%, the “Percent Growth” value ([17]; Log10 Concentration −6.0) was −7% and the “Percent Growth” value ([17]; Log10 Concentration −7.0) was 97%. For the same compound, the “Percent Growth” value ([17]; Log10 Concentration −8.0) was 92%, the GI50 ([17]; molar) was 0.284 µM and the TGI ([17]; molar) was 8.56E−7. The CC50 ([17]; read-out: LC50, molar) was 2.95 µM, the “Percent Growth” value ([26]; Log10 Concentration −4.0) was −55% and the “Percent Growth” value ([26]; Log10 Concentration −5.0) was −57%. The “Percent Growth” value ([26]; Log10 Concentration −6.0) was 47%, the “Percent Growth” value ([26]; Log10 Concentration −7.0) was 89% and the “Percent Growth” value ([26]; Log10 Concentration −8.0) was 97%. For the same compound, the GI50 ([26]; molar) was 0.848 µM, the TGI ([26]; molar) was 2.82E−6 and the CC50 ([26]; read-out: LC50, molar) was 8.51 µM. For the same compound, the “Percent Growth” value ([28]; Log10 Concentration −4.0) was −84%, the “Percent Growth” value ([28]; Log10 Concentration −5.0) was −80% and the “Percent Growth” value ([28]; Log10 Concentration −6.0) was −33%. The “Percent Growth” value ([28]; Log10 Concentration −7.0) was 97%, the “Percent Growth” value ([28]; Log10 Concentration −8.0) was 100% and the GI50 ([28]; molar) was 0.228 µM. For the same compound, the CC50 ([28]; read-out: LC50, molar) was 2.27 µM, the “Percent Growth” value ([31]; Log10 Concentration −4.0) was −100% and the “Percent Growth” value ([31]; Log10 Concentration −5.0) was −99%. For the same compound, the “Percent Growth” value ([31]; Log10 Concentration −6.0) was 56%, the “Percent Growth” value ([31]; Log10 Concentration −7.0) was 105% and the “Percent Growth” value ([31]; Log10 Concentration −8.0) was 103%. It also gave a GI50 ([31]; molar) of 1.1 µM, a TGI ([31]; molar) of 2.30E−6 and a CC50 ([31]; read-out: LC50, molar) of 4.81 µM. The “Percent Growth” value ([34]; Log10 Concentration −4.0) was −39%, the “Percent Growth” value ([34]; Log10 Concentration −5.0) was −37% and the “Percent Growth” value ([34]; Log10 Concentration −6.0) was −6%. For the same compound, the “Percent Growth” value ([34]; Log10 Concentration −7.0) was 92%, the “Percent Growth” value ([34]; Log10 Concentration −8.0) was 103% and the GI50 ([34]; molar) was 0.268 µM. The CC50 ([34]; read-out: LC50, molar) was over 100 µM, the “Percent Growth” value ([35]; NCI/ADR-, Log10 Concentration −4.0) was −57% and the “Percent Growth” value ([35]; NCI/ADR-, Log10 Concentration −5.0) was 21%. For the same compound, the “Percent Growth” value ([35]; NCI/ADR-, Log10 Concentration −6.0) was 92%, the “Percent Growth” value ([35]; NCI/ADR-, Log10 Concentration −7.0) was 111% and the “Percent Growth” value ([35]; NCI/ADR-, Log10 Concentration −8.0) was 103%. For the same compound, the GI50 ([35]; NCI/ADR-, molar) was 3.91 µM, the TGI ([35]; NCI/ADR-, molar) was 1.87E−5 and the CC50 ([35]; read-out: LC50, NCI/ADR-, molar) was 82 µM. For the same compound, the “Percent Growth” value ([36]; Log10 Concentration −4.0) was −87%, the “Percent Growth” value ([36]; Log10 Concentration −5.0) was −94% and the “Percent Growth” value ([36]; Log10 Concentration −6.0) was 48%. For the same compound, the “Percent Growth” value ([36]; Log10 Concentration −7.0) was 90%, the “Percent Growth” value ([36]; Log10 Concentration −8.0) was 90% and the GI50 ([36]; molar) was 0.88 µM. For the same compound, the TGI ([36]; molar) was 2.17E−6, the CC50 ([36]; read-out: LC50, molar) was 4.9 µM and the “Percent Growth” value ([37]; Log10 Concentration −4.0) was −78%. For the same compound, the “Percent Growth” value ([37]; Log10 Concentration −5.0) was −84%, the “Percent Growth” value ([37]; Log10 Concentration −6.0) was −31% and the “Percent Growth” value ([37]; Log10 Concentration −7.0) was 100%. For the same compound, the “Percent Growth” value ([37]; Log10 Concentration −8.0) was 98%, the GI50 ([37]; molar) was 0.268 µM and the TGI ([37]; molar) was 6.62E−7. For the same compound, the CC50 ([37]; read-out: LC50, molar) was 2.85 µM.

Source: patent publication US10118935B2, “Melampomagnolide B dimers” (priority 2014, dated 2018)
